Measurements: US20260335388A1, “COMBINATION THERAPIES WITH ONCOLYTIC ADENOVIRUS AND TOPOISOMERASE I INHIBITORS OR PRODRUGS THEREOF” (priority 2022, published 2026)
pIC50: −log10 of the molar value. Read-outs that look alike come from different tables or passages of the source.

Legend:
[1] = system: retinoblastoma cells; assay type: cell-based
[2] = system: HSJD-RBVS-10 retinoblastoma cells; assay: cells; assay type: cell-based; details: Homo sapiens
[3] = system: Y79 retinoblastoma cells; assay: cells; assay type: cell-based
[4] = system: HSJD-RBT-5 retinoblastoma cells; assay: cells; assay type: cell-based; details: Homo sapiens
[5] = system: HSJD-RBT-7 retinoblastoma cells; assay: cells; assay type: cell-based; details: Homo sapiens
[6] = system: E1a; assay: Immunoblot of E1a / E2F-1 in VCN-01-infected Y79 cells with further chemotherapeutics; assay type: cell-based; details: for expression of VCN-01 proteins (E1a): VCN-01 50 MOI, drug added at 24 h, lysis at 48 h (FIG. 7); for expression of E2F-1 and E1A: Y79 cells pre-exposed to VCN-01 (FIG. 13H)
Protocol: 2 million Y79 retinoblastoma cells were infected with 50 MOIs of VCN-01. […] Etoposide is topoisomerase 2 inhibitor.
In all experiments, 6-well culture plates containing 2×10^6 cells were used. […] The experiments were controlled by adding culture medium instead of the second treatment. […] The analyses were expanded to other chemotherapeutic agents including hydroxyurea ([…]), etoposide (2 μM), irinotecan (10 μM) or SN-38 (1 μM).
Near-infrared labeled secondary antibodies (Odyssey CLx, LI-COR Inc. Bad Homburg, Germany) were used for detection.

[7] = system: Y79 tumors; assay type: in vivo, mouse; details: systemic drug after intratumoral VCN-01 3×10E^9 vp/tumor; 5 or 15 days (FIGS. 2A-B)
[8] = system: Y79 cells and primary retinoblastoma cultures; assay type: cell-based
[9] = system: HSJD-NB-005 neuroblastoma; assay: Antitumor activity in neuroblastoma PDX HSJD-NB-005; assay type: in vivo, mouse; details: single treatment (FIG. 24D,F)
Protocol: PDX of neuroblastoma (pediatric solid tumor) were implanted subcutaneously into athymic nude mice. Tumor model was HSJD-NB-005. Upon engraftment (tumor volumes ranging 100-500 mm^3), treatments were started. The activity of topotecan vs. irinotecan in combination with VCN-01 was evaluated. The following groups of mice were included in the study, with an n of 6 tumors per group: • Group 1: no treatment • Group 2: topotecan i.p. at 0.6 mg/kg, Day 1-5 • Group 3: irinotecan i.p. at 10 mg/kg, Day 1-5 • Group 4: VCN-01 i.t at 3E9 vp/tumor, Day 1 • Group 5: VCN-01 i.t at 3E9 vp/tumor, Day 1 (morning)+topotecan i.p. at 0.6 mg/kg, Day 1-5 • Group 6: VCN-01 i.t at 3E9 vp/tumor, Day 1 (morning)+irinotecan i.p. at 10 mg/kg, Day 1-5
Antitumor activity in extracranial pediatric solid tumors. 5-10 mm^3 fresh fragments of Ewing sarcoma or neuroblastoma PDX were implanted in both flanks of mice. Upon s.c. engraftment (tumor volume 150-200 mm^3), mice received topotecan (0.6 mg/kg, i.p., days 1-5), VCN-01 (3×10^9 vp in 20 µL vehicle, intratumoral, day 1), or the combination. In two additional groups, an alternative topoisomerase 1 inhibitor, irinotecan (10 mg/kg, i.p., on days 1-5) we used in place of topotecan. Upon completion of treatments, tumor volumes were followed until endpoint (1500 mm^3), or until day 80.

[10] = read-out: IC50, Melphalan single agent
[11] = read-out: IC50, Melphalan with VCN-01 (10 MOI)

For `N[C@@H](Cc1ccc(N(CCCl)CCCl)cc1)C(=O)O` [Melphalan, melphalan], which “cell sensitivity to drug after VCN-01 infection” value [1] is on record?
Its value is “decreased cell sensitivity”.

And the pIC50 [2, 10]?
Its pIC50 is 6.62.

And the pIC50 [2, 11]?
The pIC50 was 5.69.

What about the pIC50 [3, 10] of the same compound?
The pIC50 was 5.49.

What about the pIC50 [3, 11] of the same compound?
Its pIC50 is 5.23.

What about the pIC50 [4, 10] of the same compound?
The pIC50 was 6.32.

What about the pIC50 [4, 11] of the same compound?
The pIC50 was 6.20.

What about the pIC50 [5, 10] of the same compound?
The pIC50 was 5.85.

What about the pIC50 [5, 11] of the same compound?
Its pIC50 is 5.07.

`COc1cc([C@@H]2c3cc4c(cc3[C@@H](O[C@@H]3O[C@@H]5CO[C@@H](C)O[C@H]5[C@H](O)[C@H]3O)[C@H]3COC(=O)[C@H]23)OCO4)cc(OC)c1O` [etoposide] was tested. Which “expression of VCN-01 proteins (E1a)” value [6] did it give?
The value was “does not induce the same effect”.

What about the “expression of E2F-1 and E1A” value [6] of the same compound?
Its value is “did not modify the levels of these proteins”.

`NC(=O)NO` [hydroxyurea] was tested. Which “expression of E2F-1 and E1A” value [6] did it give?
Its value is “did not modify the levels of these proteins”.

What about the “VCN-01 genome content in tumors” value [7] of the same compound?
Its value is “the enhancement of VCN-01 replication in vivo appears to be specific to topotecan”.

What about the “transgene expression, virus first” value ([8]; cells pre-infected with AdTLRGDK (FIG. 18E, FIG. 19A)) of the same compound?
The value was “increased transgene expression”.

And the “viral transduction, drug first” value ([8]; drug exposure before viral infection (FIG. 18E))?
The value was “did not enhance viral transduction”.

Which “response of xenograft to single treatment” value [9] does the source give for `CCc1c2c(nc3ccc(OC(=O)N4CCC(N5CCCCC5)CC4)cc13)-c1cc3c(c(=O)n1C2)COC(=O)[C@]3(O)CC` [irinotecan] here?
Its value is “highly resistant”.

And the “expression of VCN-01 proteins (E1a)” value [6]?
Its value is “does not work in vitro”.

Which “expression of VCN-01 proteins (E1a)” value [6] does the source give for SN-38 here?
Its value is “increases expression of VCN-01 proteins”.

And the “expression of E2F-1 and E1A” value [6]?
The value was “increased the expression of E2F-1 and E1A similarly to topotecan”.
